Experimental data: US11602521B2, “N,N-dimethyltryptamine compositions and methods” (ATAI Life Sciences AG, priority 2021, dated 2023)
Where two headings read alike, the source gives them in different places.

Test: DMT plasma concentration after a single SC injection of DMT succinate to rats
Assay type: in vivo
Settings: for DMT plasma concentration: rats; for AUC0-24 hr/Dose / AUCTlast/Dose / Cmax/Dose / Tlast / AUC(0-t) / Tmax: Day 1, rats; for Cmax: both sexes, Day 1, rats males and females combined; for Cmax / AUC(0-t) / Tmax: rat, plasma; for AUC(0-t): sc
From the text: Example 2: Study of DMT Succinate Administered Subcutaneously

[1] = 5 mg/kg DMT succinate single SC
[2] = 10 mg/kg DMT succinate single SC

With `CN(C)CCc1c[nH]c2ccccc12` [DMT, N,N-dimethyltryptamine] the DMT plasma concentration (5 mg/kg DMT succinate SC, Time 0.5 h) was 228, the DMT plasma concentration (5 mg/kg DMT succinate SC, Time 1 h) was 202 and the DMT plasma concentration (5 mg/kg DMT succinate SC, Time 2 h) was 27.1. It also gave a DMT plasma concentration (5 mg/kg DMT succinate SC, Time 4 h) of 0, a DMT plasma concentration (5 mg/kg DMT succinate SC, Time 8 h) of 0 and a DMT plasma concentration (5 mg/kg DMT succinate SC, Time 12 h) of 0. The DMT plasma concentration (5 mg/kg DMT succinate SC, Time 24 h) was 0, the “AUC0-24 hr/Dose” value [1] was 61.1 kg·ng·h/mL/mg and the AUCTlast/Dose [1] was 55.7 kg·ng·h/mL/mg. For the same molecule, the Cmax/Dose [1] was 45.5 kg·ng/mL/mg, the Tlast [1] was 2 h and the DMT plasma concentration (10 mg/kg DMT succinate SC, Time 0.5 h) was 836. It also gave a DMT plasma concentration (10 mg/kg DMT succinate SC, Time 1 h) of 1260, a DMT plasma concentration (10 mg/kg DMT succinate SC, Time 2 h) of 1170 and a DMT plasma concentration (10 mg/kg DMT succinate SC, Time 4 h) of 149. The DMT plasma concentration (10 mg/kg DMT succinate SC, Time 8 h) was 0.707, the DMT plasma concentration (10 mg/kg DMT succinate SC, Time 12 h) was 0 and the DMT plasma concentration (10 mg/kg DMT succinate SC, Time 24 h) was 0. For the same molecule, the “AUC0-24 hr/Dose” value [2] was 143 kg·ng·h/mL/mg, the AUCTlast/Dose [2] was 142 kg·ng·h/mL/mg and the Cmax/Dose [2] was 50.5 kg·ng/mL/mg. The Tlast [2] was 8 h, the Cmax [1] was 228 ng/mL and the Cmax [2] was 1260 ng/mL. It also gave an AUC(0-t) (5 mg/kg, 5 mg/kg DMT succinate single SC, read-out: AUC0-24 hr) of 306 ng·h/mL, an AUC(0-t) (5 mg/kg, 5 mg/kg DMT succinate single SC, read-out: AUCTlast) of 278 ng·h/mL and an AUC(0-t) (10 mg/kg, 10 mg/kg DMT succinate single SC, read-out: AUC0-24 hr) of 3560 ng·h/mL. For the same molecule, the AUC(0-t) (10 mg/kg, 10 mg/kg DMT succinate single SC, read-out: AUCTlast) was 3560 ng·h/mL, the Tmax [1] was 30 min and the Tmax [2] was 60 min.
